Consider 1 substance from paper PMC6016400 (Journal of medicinal chemistry, 2017).

Test [1] has as its target T1, hPTHR1 (Homo sapiens, UniProt Q03431).
T1 sequence (Q03431 27-593): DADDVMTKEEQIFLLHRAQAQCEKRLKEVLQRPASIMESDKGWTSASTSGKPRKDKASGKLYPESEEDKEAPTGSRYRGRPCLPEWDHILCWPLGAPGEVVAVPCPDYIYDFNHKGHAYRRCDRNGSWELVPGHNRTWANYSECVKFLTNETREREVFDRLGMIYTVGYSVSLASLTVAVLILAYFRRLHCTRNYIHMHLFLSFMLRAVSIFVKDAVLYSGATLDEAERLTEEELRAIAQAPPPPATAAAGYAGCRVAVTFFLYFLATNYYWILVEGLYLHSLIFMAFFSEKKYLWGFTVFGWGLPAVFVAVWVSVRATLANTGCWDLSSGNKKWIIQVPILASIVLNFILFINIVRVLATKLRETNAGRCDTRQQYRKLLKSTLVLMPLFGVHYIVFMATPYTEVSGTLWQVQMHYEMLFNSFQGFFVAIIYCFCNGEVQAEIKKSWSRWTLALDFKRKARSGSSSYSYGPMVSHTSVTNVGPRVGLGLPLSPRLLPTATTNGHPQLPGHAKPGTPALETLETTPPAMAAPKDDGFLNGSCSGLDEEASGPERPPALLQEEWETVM
The experiment in a line: cAMP induction. As to conditions: Table 1; ratio of cAMP EC50 values, hPTHR1, GP2.3 cells. The test is classed as cell-based.

Test [2] has as its system CD1 mice. To be noted: subcutaneous injection; cited from earlier work.
In test [3] the test system is R0 conformation of the human PTHR1. To be noted: cited from earlier work.

Regarding M-PTH(1-34) [Peptide 27], the “Derivative EC50/PTH(1-34) EC50” value in test [1] amounted to 4.2. For the same substance, the “duration of calcemic effect in mice, earlier studies” value in test [2] is reported as “long-lasting calcemic effect”. Besides, the “binding to the R0 state of PTHR1, rank in words, earlier studies” value in test [3] was “binds even more tightly than does 1”.
